Measured values taken from PMC3907409, “A Cytoplasmic New Catalytic Subunit of Calcineurin in Trypanosoma cruzi and Its Molecular and Functional Characterization” (PLoS Neglected Tropical Diseases, 2014).

Molecular target: T1, TcCaNA2 (Trypanosoma cruzi, UniProt G9B7N4)
T1 construct: gene CaNA2; tag cleavage not mentioned; primers from CL Brener XM_816360.1
Test: colorimetric phosphatase assay, absorbance at […] nm
Assay type: biochemical
Conditions: 80 mM p-NPP, 1 µg enzyme, 15 min at 30 °C; 1 mM MnCl2 or NiCl2 (also CaCl2, MgCl2)

T1 sequence (G9B7N4 entry or part of it): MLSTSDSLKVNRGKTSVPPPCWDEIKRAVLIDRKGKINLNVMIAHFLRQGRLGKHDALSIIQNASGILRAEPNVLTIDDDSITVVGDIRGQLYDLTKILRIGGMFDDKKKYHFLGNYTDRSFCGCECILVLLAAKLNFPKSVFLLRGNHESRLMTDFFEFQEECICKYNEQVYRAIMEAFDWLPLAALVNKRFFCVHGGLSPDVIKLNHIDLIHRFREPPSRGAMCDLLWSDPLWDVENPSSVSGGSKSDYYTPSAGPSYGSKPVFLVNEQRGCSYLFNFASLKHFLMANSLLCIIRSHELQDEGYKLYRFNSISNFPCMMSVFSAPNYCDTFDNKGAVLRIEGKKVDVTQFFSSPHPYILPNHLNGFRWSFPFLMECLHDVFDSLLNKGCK

Q: Which “colorimetric phosphatase assay, absorbance at 405 nm” value does the source give for `O=[N+]([O-])c1ccc(OP(=O)(O)O)cc1` [p-nitrophenyl phosphate] here?
A: The recombinant protein TcCaNA2 showed enzymatic activity using p-NPP as substrate
